From PubChem BioAssay AID330 (DTP/NCI, 2004)
“And” between values parts separate entries of the source, which are not always exact repeats. Equal values may be shown once. Inconclusive results and toxic doses are left out. The calls were made as follows: active = survival T/C of 150% or more; inactive = T/C below 125% in these data.

System: P388 leukemia ip, CD2F1 mice, survival T/C
Experiment: NCI In Vivo Anticancer Drug Screen. Data for tumor model P388 Leukemia (intraperitoneal) in CD2F1 (CDF1) mice
Settings: endpoint: median survival time, higher = longer survival
Summary of the method: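 Mice carrying the transplanted tumor received test compound or vehicle. Survival was recorded in each group, and the value is the treated-group measurement divided by that of the vehicle-treated control group.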

[1] = dose: 100.0 mg/kg/injection, schedule: Q04DX003 (ip), vehicle: saline with Tween-80
[2] = dose: 200.0 mg/kg/injection, schedule: Q04DX003 (ip), vehicle: saline with Tween-80
[3] = dose: 400.0 mg/kg/injection, schedule: Q04DX003 (ip), vehicle: saline with Tween-80
[4] = dose: 50.0 mg/kg/injection, schedule: Q01DX005 (ip), vehicle: saline
[5] = dose: 100.0 mg/kg/injection, schedule: Q01DX005 (ip), vehicle: saline
[6] = dose: 60.0 mg/kg/injection, schedule: Q01DX005 (ip), vehicle: saline with Tween-80
[7] = dose: 200.0 mg/kg/injection, schedule: Q01DX009 (ip), vehicle: saline with Tween-80
[8] = dose: 50.0 mg/kg/injection, schedule: Q01DX009 (ip), vehicle: saline with Tween-80
[9] = dose: 50.0 mg/kg/injection, schedule: Q01DX005 (ip), vehicle: saline with Tween-80
[10] = dose: 100.0 mg/kg/injection, schedule: Q01DX005 (ip), vehicle: saline with Tween-80
[11] = dose: 200.0 mg/kg/injection, schedule: Q01DX005 (ip), vehicle: saline with Tween-80
[12] = dose: 50.0 mg/kg/injection, schedule: Q04DX003 (ip), vehicle: saline with Tween-80

Measured: T/C

Cc1ccc(C2CCC(C#N)=CN2C)cc1 (stereo unspecified)
inactive: dose: 50.0 mg/kg/injection, schedule: Q01DX005 (ip), vehicle: Klucel + Tween-80 94 % of control | dose: 100.0 mg/kg/injection, schedule: Q01DX005 (ip), vehicle: Klucel + Tween-80 98 % of control | dose: 200.0 mg/kg/injection, schedule: Q01DX005 (ip), vehicle: Klucel + Tween-80 100 % of control

CCCCCCCCCCCCCCCc1cccc(O)c1C(=O)O
inactive: dose: 12.5 mg/kg/injection, schedule: Q01DX005 (ip), vehicle: distilled water + Tween-80 106 % of control | dose: 20.0 mg/kg/injection, schedule: Q01DX009 (ip), vehicle: saline with Tween-80 113 % of control | dose: 25.0 mg/kg/injection, schedule: Q01DX005 (ip), vehicle: distilled water + Tween-80 102 % of control | dose: 40.0 mg/kg/injection, schedule: Q01DX009 (ip), vehicle: saline with Tween-80 111 % of control | dose: 50.0 mg/kg/injection, schedule: Q01DX005 (ip), vehicle: distilled water + Tween-80 107 % of control | dose: 80.0 mg/kg/injection, schedule: Q01DX009 (ip), vehicle: saline with Tween-80 109 % of control | dose: 100.0 mg/kg/injection, schedule: Q01DX005 (ip), vehicle: distilled water + Tween-80 117 % of control

COc1ccc(C[Se][Se]Cc2ccc(OC)cc2)cc1
inactive: dose: 6.25 mg/kg/injection, schedule: Q01DX009 (ip), vehicle: Klucel (hydroxypropylcellulose) (HPC) 99 % of control | dose: 12.5 mg/kg/injection, schedule: Q01DX009 (ip), vehicle: Klucel (hydroxypropylcellulose) (HPC) 108 % of control | dose: 25.0 mg/kg/injection, schedule: Q01DX009 (ip), vehicle: Klucel (hydroxypropylcellulose) (HPC) 106 % of control

COc1ccc(C(=O)CC(C(=O)O)c2ccc(OC)cc2)cc1 (stereo unspecified)
inactive: [1] 102 % of control | [2] 94 % of control | [3] 99 % of control

NC(=O)NNc1cccc(Cl)n1
inactive: dose: 100.0 mg/kg/injection, schedule: Q01DX001 (ip), vehicle: Klucel (hydroxypropylcellulose) (HPC) 96 % of control | dose: 200.0 mg/kg/injection, schedule: Q01DX001 (ip), vehicle: Klucel (hydroxypropylcellulose) (HPC) 101 % of control | dose: 400.0 mg/kg/injection, schedule: Q01DX001 (ip), vehicle: Klucel (hydroxypropylcellulose) (HPC) 97 % of control

CN1CCC(c2ccccc2)C(OC(=O)c2ccccc2)C1 (stereo unspecified)
inactive: dose: 25.0 mg/kg/injection, schedule: Q01DX005 (ip), vehicle: saline 110 % of control | [4] 111 % of control | [5] 100 % of control

O=C1OC(c2ccc(F)cc2)CC1CN1CCOCC1 (stereo unspecified)
inactive: [6] 105 % of control | dose: 120.0 mg/kg/injection, schedule: Q01DX005 (ip), vehicle: saline with Tween-80 105 % of control | dose: 240.0 mg/kg/injection, schedule: Q01DX005 (ip), vehicle: saline with Tween-80 99 % of control

Cc1cc(-c2ccccc2)c2ccccc2c1N(CC(=O)O)S(=O)(=O)c1ccccc1
inactive: [1] 100 % of control | [7] 115 % of control | [2] 100 % of control | [3] 90 % of control

CC(=O)O[C@H]1C2c3c(ccc4c(=O)cc(-c5ccccc5)oc34)OC2OC1(C)C (stereo partly specified)
inactive: dose: 0.4 mg/kg/injection, schedule: Q01DX005 (ip), vehicle: Klucel (hydroxypropylcellulose) (HPC) 97 % of control | dose: 0.8 mg/kg/injection, schedule: Q01DX005 (ip), vehicle: Klucel (hydroxypropylcellulose) (HPC) 92 % of control | dose: 1.6 mg/kg/injection, schedule: Q01DX005 (ip), vehicle: Klucel (hydroxypropylcellulose) (HPC) 97 % of control | dose: 3.2 mg/kg/injection, schedule: Q01DX005 (ip), vehicle: Klucel (hydroxypropylcellulose) (HPC) 98 % of control

CCOP(OCC)SSCn1nc2ccc3ccccc3n2c1=O
inactive: dose: 15.0 mg/kg/injection, schedule: Q01DX005 (ip), vehicle: saline with Tween-80 98 % of control | dose: 30.0 mg/kg/injection, schedule: Q01DX005 (ip), vehicle: saline with Tween-80 97 % of control | [6] 103 % of control

N#CC(C#N)=CNCC1CC1
inactive: dose: 15.0 mg/kg/injection, schedule: Q01DX005 (ip), vehicle: Klucel (hydroxypropylcellulose) (HPC) 102 % of control | dose: 30.0 mg/kg/injection, schedule: Q01DX005 (ip), vehicle: Klucel (hydroxypropylcellulose) (HPC) 100 % of control | dose: 60.0 mg/kg/injection, schedule: Q01DX005 (ip), vehicle: Klucel (hydroxypropylcellulose) (HPC) 98 % of control and 99 % of control

CCCCB1OB(CCCC)OB(CCCC)O1
inactive: [8] 92 % of control | dose: 100.0 mg/kg/injection, schedule: Q01DX009 (ip), vehicle: saline with Tween-80 105 % of control | [7] 105 % of control

CC1=NN(C(=O)CC(=O)Nc2ccc(C(=O)O)cc2)C(=O)C1N=Nc1ccc(S(N)(=O)=O)cc1 (stereo unspecified)
inactive: [9] 96 % of control | [10] 94 % of control | [11] 93 % of control

COc1cc2c(cc1OC)C1CC(=O)C(Cc3ccccc3)CN1CC2 (stereo unspecified)
inactive: dose: 50.0 mg/kg/injection, schedule: Q01DX009 (ip), vehicle: Klucel (hydroxypropylcellulose) (HPC) 101 % of control | dose: 100.0 mg/kg/injection, schedule: Q01DX009 (ip), vehicle: Klucel (hydroxypropylcellulose) (HPC) 87 % of control and 95 % of control | dose: 200.0 mg/kg/injection, schedule: Q01DX009 (ip), vehicle: Klucel (hydroxypropylcellulose) (HPC) 95 % of control and 104 % of control

Cc1c(N=Nc2cccc(F)c2)c(-c2ccccc2)nn1C(=S)S
inactive: [9] 117 % of control | [10] 111 % of control | [11] 104 % of control

CN1CCC(O)(c2ncc(Br)c3ccccc23)CC1
inactive: dose: 60.0 mg/kg/injection, schedule: Q01DX005 (ip), vehicle: saline + alcohol 97 % of control | dose: 120.0 mg/kg/injection, schedule: Q01DX005 (ip), vehicle: saline + alcohol 93 % of control

N/C(=N\O)c1ccc2oc(/C=C/c3cc4cc(/C(N)=N\O)ccc4o3)cc2c1
inactive: dose: 50.0 mg/kg/injection, schedule: Q01DX009 (ip), vehicle: saline 100 % of control | dose: 100.0 mg/kg/injection, schedule: Q01DX009 (ip), vehicle: saline 97 % of control | dose: 200.0 mg/kg/injection, schedule: Q01DX009 (ip), vehicle: saline 91 % of control

O=C1C=C(O/C=C/C(C(F)(F)F)C(F)(F)F)C(=O)c2ccccc21
inactive: [8] 115 % of control | [12] 91 % of control | [1] 95 % of control

CCCCCCCCCCCCCCCC(=O)OCCCCCCCCCCC
inactive: dose: 25.0 mg/kg/injection, schedule: Q04DX003 (ip), vehicle: saline with Tween-80 113 % of control | [12] 95 % of control | [1] 90 % of control

C=C(C)c1cc(C(C)(C)C)cc(C(C)(C)O)c1S(C)(=O)=O
inactive: dose: 100.0 mg/kg/injection, schedule: Q04DX003 (ip), vehicle: Klucel (hydroxypropylcellulose) (HPC) 97 % of control | dose: 200.0 mg/kg/injection, schedule: Q04DX003 (ip), vehicle: Klucel (hydroxypropylcellulose) (HPC) 98 % of control | dose: 400.0 mg/kg/injection, schedule: Q04DX003 (ip), vehicle: Klucel (hydroxypropylcellulose) (HPC) 95 % of control

CCN(CC)CCOCCOC1CC2CCC1(C)C2(C)C (stereo unspecified)
inactive: [4] 99 % of control | [5] 96 % of control

COc1cc(C(=O)c2cc3c(cc2C=O)OCO3)cc(OC)c1OC
inactive: dose: 50.0 mg/kg/injection, schedule: Q01DX005 (ip), vehicle: Klucel (hydroxypropylcellulose) (HPC) 95 % of control | dose: 100.0 mg/kg/injection, schedule: Q01DX005 (ip), vehicle: Klucel (hydroxypropylcellulose) (HPC) 90 % of control | dose: 200.0 mg/kg/injection, schedule: Q01DX005 (ip), vehicle: Klucel (hydroxypropylcellulose) (HPC) 99 % of control

C/C(=N/NC(=S)NCc1ccccc1)c1ncccn1
inactive: dose: 12.5 mg/kg/injection, schedule: Q01DX005 (ip), vehicle: saline with Tween-80 100 % of control | dose: 25.0 mg/kg/injection, schedule: Q01DX005 (ip), vehicle: saline with Tween-80 100 % of control | [9] 105 % of control and 98 % of control

OC(CCCN1CCN2CCc3[nH]c4ccccc4c3C2C1)c1ccc(F)cc1 (stereo unspecified)
inactive: dose: 100.0 mg/kg/injection, schedule: Q04DX002 (ip), vehicle: Klucel (hydroxypropylcellulose) (HPC) 100 % of control | dose: 200.0 mg/kg/injection, schedule: Q04DX002 (ip), vehicle: Klucel (hydroxypropylcellulose) (HPC) 95 % of control | dose: 400.0 mg/kg/injection, schedule: Q04DX002 (ip), vehicle: Klucel (hydroxypropylcellulose) (HPC) 100 % of control
